Test results: patent US6951647B2, “T cell binding ligand peptides and method of inducing a cellular immune response” (Cel-Sci Corporation, priority 2001, dated 2005)
“And” between values parts separate entries of the source, which are not always exact repeats. Equal entries are not always repeated.

Experiments:
[1] = tested on: Peptide G; assay: Specificity analysis for the TCBL carrier, ELISA plates coated with Peptide G; type: in vivo, Mice; details: individual animal
[2] = tested on: Peptide G; assay: as above; type: in vivo, Mice; details: for A 490 1:200 dilution on plates coated with Peptide G: Average
Experimental: (§1) Mice in groups (5-10 animals per group as designated) are immunized with the LEAPS constructs (25 μg/dose) of SEQ ID NO's:37, 38 and 39, in 0.2 mL emulsified 1:1 with adjuvant (Seppic's ISA-51 or Corixa's microfluidized MPL S/E) on days 0 and 14. Mice are evaluated by Delayed Type of Hypersensitivity (DTH) by inoculation on day 26 with 20 μl of a solution of saline or mH (SEQ ID NO:6) (25 μg in saline) in the left or right ear respectively. The DTH response is determined by measurement of the ear thickness 48 hours later and expressed as increase in ear thickness (mm) of experimental ear compared to that of the control ear. Individual animal sera are collected for measurement of antibody on day 28, 42, 63 and 77. Sera from individual animals and group pools are evaluated for specific anti-mH antibody, for total antibody, IgG1, IgG2a and IgG3 antibody isotype and cross clade titer at selected time points as indicated.
A specificity analysis for the TCBL or KLH carrier for pools of day 42 test bleedings from the G-mH, G′-mH and mH/KLH, using either MPL S/E or ISA51 as adjuvant, was carried out (all sera assayed at a dilution of 1:200) and the results are shown in Table 5. […] This observation is especially significant for vaccines used on a repetitive basis, such as, either a vaccine that requires more frequent intervals between boosters for maintenance of cellular reactivity or as a therapeutic vaccine.

[3] = tested on: B Clade; assay: ELISA cross clade recognition by sera of immunized mice, B Clade; type: in vivo; details: for ELISA test antigen B Clade: day 42 test bleeding
Experimental: as §1
(§2) The mouse sera for the ELISA was used at a dilution of 1:200. Again, clearly, the construct provides higher signals indicative of higher levels of the antibodies that recognized other clades besides the parental one (Clade B) of mH.
(§3) A cross clade analysis for pools of day 42 test bleedings from the same groups as used in Table 3, were obtained and the results are shown in Table 4.

[4] = tested on: E Clade; assay: ELISA cross clade recognition by sera of immunized mice, E Clade; type: in vivo; details: for ELISA test antigen E Clade: day 42 test bleeding, Group Average
Experimental: as §1, §2, §3

[5] = tested on: modified HGP-30; assay: Delayed Type Hypersensitivity (DTH) ear thickness response with antisera depletion of CD4 or CD8 cells; type: in vivo, Mice
Experimental: as §1
(§4) Select immunoglobulin preparations were obtained from Dr. Stephen Hoffmann, Malaria Program, U.S. Navy. […] This allows one to determine some parts of the nature of various cellular (e.g., T-cell) involvement in the early stage of immune system response with the LEAPS peptide-constructs. It is recognized, however, that this is only a temporary event since new cells are continuously being developed from stem cells and the animals become resistant to the reagents.
(§5) The animals are pretreated with the antisera as indicated for 5 days before the initial immunization with peptide-construct having SEQ ID NO:37 or SEQ ID NO:39 on […]. No pretreatment is done before the booster immunization on day 14 or DTH on day 26-28. The mice are then inoculated with the test antigen or saline (control) on day 26 in the left and right ears, respectively, and the DTH response is measured on day 28. The difference between the values for the test and saline control ears is calculated for each group of five animals along with the standard error of the mean (sem) and the results are plotted (see FIG. 1). Also shown in FIG. 1 are values for the untreated animals and animals immunized on day 14 only.
The DTH (Delayed Type Hypersensitivity) data is statistically significant with a t-test of 0.05 for SEQ ID NO:39 and anti-CD8. The DTH for pretreatment of SEQ ID NO:37 immunized mice with anti-CD4 was just above the cutoff limit for statistical significance due to a weaker DTH response and small group size.

[6] = tested on: C Clade; assay: ELISA cross clade recognition by sera of immunized mice, C Clade; type: in vivo; details: for ELISA test antigen C Clade: day 42 test bleeding
Experimental: as §1, §2, §3

[7] = tested on: modified HGP-30; assay: ELISA for antibody after antisera depletion of CD4 or CD8 cells (FIG. 2); type: in vivo, Mice; details: pretreatment with anti-CD4, day 28, p=0.002 (FIG. 2)
From the text: as §4, §5
This example is similar to Example 2 but using a more sensitive ELISA test for antibody type. […] This was not the case, however, with pretreatment using anti-CD8 or normal rat IgG. […]

[8] = day 63 test bleeding, sera 1:200, individual mouse
[9] = Day 14 Injection Only (immunized with construct on day 14 only), average of group of 5 mice
[10] = Treatment Anti CD4, daily for 5 days before immunization, average of group (5 mice)
[11] = Treatment Anti CD8, daily for 5 days before immunization, average of group of 5 mice
[12] = Treatment None, average of group (5 mice), ISA 51 adjuvant
[13] = Treatment Normal rat IgG, daily for 5 days before immunization, average of group (5 mice)

DGQ EEK AGV VST GLI GGG ATL YSV HQR IDV KDT KEA LEK IEE EQN KS (DGQEEKAGVVSTGLIGGGYLSGANLNL) [SEQ ID NO: 57, Peptide G′ linked by GGG spacer to modified HGP-30 (mH)]
A 490 1:200 dilution on plates coated with Peptide G ([1]; day 42, first set of groups (animals 4637-4648, 4674-4678)): 0.083 A 490 and 0.054 A 490 and 0.097 A 490 and 0.038 A 490 and 0.087 A 490 and 0.121 A 490 | A 490 1:200 dilution on plates coated with Peptide G ([1]; day 42, second set of groups (animals 4662-4673, 4679-4683)): 0.091 A 490 and 0.024 A 490 and 0.006 A 490 and 0.015 A 490 and 0.126 A 490 and 0.113 A 490 | A 490 1:200 dilution on plates coated with Peptide G ([2]; day 42, first set of groups): 0.080 A 490 | A 490 1:200 dilution on plates coated with Peptide G ([2]; day 42, second set of groups): 0.062 A 490 | Reactivity toward the delivery vehicle TCBL ([2]; day 42 sera at 1:200, Table 5, in words): minimal reactivity | ELISA test antigen B Clade ([3]; group (A), Group Average): 0.346 | ELISA test antigen B Clade ([3]; group (A), individual mouse): 0.271 and 0.000 and 0.036 and 0.507 and 0.187 and 1.074 | ELISA test antigen B Clade ([3]; group (B), Group Average): 1.410 | ELISA test antigen B Clade ([3]; group (B), individual mouse): 2.348 and 0.496 and 1.799 and 1.228 and 2.244 and 0.349 | ELISA signal on B Clade [3, 8]: 1.667 and 0.160 and 0.099 and 0.236 and 1.547 and 0.470 and 1.138 and 0.994 and 0.000 and 0.505 | ELISA test antigen E Clade ([4]; group (A)): 0.035 | ELISA test antigen E Clade ([4]; group (B)): 0.094 | ELISA signal on E Clade [4, 8]: 0.933 and 0.030 and 0.113 and 0.041 and 0.000 (2×) and 0.029 and 0.068 and 0.006 and 0.271 | Left Ear thickness, inoculated day 26 with HGP-30, measured after 48 hours [5, 9]: 0.234 mm | Right Ear thickness, inoculated day 26 with saline, measured after 48 hours [5, 9]: 0.222 mm | DTH % increase (L-R)/R ([5]; Day 14 Injection Only, average of group of 5 mice): 5.10% | Left Ear thickness, inoculated day 26 with HGP-30, measured after 48 hours [5, 10]: 0.252 mm | Right Ear thickness, inoculated day 26 with saline, measured after 48 hours [5, 10]: 0.237 mm | DTH % increase (L-R)/R ([5]; Treatment Anti CD4, average of group (5 mice)): 6.10% | Left Ear thickness, inoculated day 26 with HGP-30, measured after 48 hours [5, 11]: 0.290 mm | Right Ear thickness, inoculated day 26 with saline, measured after 48 hours [5, 11]: 0.232 mm | DTH % increase (L-R)/R ([5]; Treatment Anti CD8, average of group of 5 mice): 25.00% | DTH % increase (L-R)/R ([5]; Treatment None, average of group (5 mice)): 22.10% | Left Ear thickness, inoculated day 26 with HGP-30, measured after 48 hours [5, 12]: 0.274 mm | Right Ear thickness, inoculated day 26 with saline, measured after 48 hours [5, 12]: 0.224 mm | Left Ear thickness, inoculated day 26 with HGP-30, measured after 48 hours [5, 13]: 0.278 mm | Right Ear thickness, inoculated day 26 with saline, measured after 48 hours [5, 13]: 0.232 mm | DTH % increase (L-R)/R ([5]; Treatment Normal rat IgG, average of group (5 mice)): 19.90% | Type of cells required for a DTH response ([5]; cell specific antisera as depletion reagent for the primary immunization (FIG. 1)): requires the presence and presumably activation of CD4+ but not CD8+ cells | ELISA test antigen C Clade ([6]; group (A), Group Average): 0.712 | ELISA test antigen C Clade ([6]; group (A), individual mouse): 0.616 and 0.000 and 0.518 and 0.920 and 0.767 and 1.454 | ELISA test antigen C Clade ([6]; group (B), Group Average): 1.559 | ELISA test antigen C Clade ([6]; group (B), individual mouse): 2.575 and 0.837 and 1.711 and 2.254 and 0.911 and 1.070 | ELISA signal on C Clade [6, 8]: 1.454 and 0.127 and 0.427 and 0.073 and 1.592 and 0.651 and 1.365 and 1.139 and 0.008 and 1.191 | Antibody detection by ELISA after antisera depletion [7]: completely eliminated any antibodies from being detected
